US20250027863A1, “METHOD OF CHARACTERIZATION OF RELEASE OF POORLY SOLUBLE MATERIALS AND UPTAKE IN COMPLEX LIQUIDS” (Zennova LLC, priority 2021, published 2025)

Assay: MCRR in vitro release test of ibuprofen solution (flow medium) to external medium
Format: physicochemical

Compound: CC(C)Cc1ccc(C(C)C(=O)O)cc1 (centres unmarked) [ibuprofen]
- slope of ln (1-fraction released) vs. the exposure time (exposure time in seconds, 15-300 seconds): −0.0102
- percent released (ibuprofen solution in 25 mM phosphate buffer as flow medium, exposure times up to 300 seconds (test time 291.3 minutes), 20° C, triplicate): ~100%
